From ChEMBL document CHEMBL4813950, “Comparing the efficacy and selectivity of Ck2 inhibitors. A phosphoproteomics approach” (Eur J Med Chem, 2021)

Experiments:
Assay type in all cases: cell-based
[1] = target: Chaperone Ric-8A (Mus musculus) (UniProt Q3TIR3); experiment: Inhibition of Ric8a in mouse C2C12 cells assessed as reduction in phospho-sites occupancy at 4 uM after 5 hrs by SILAC based LC-MS/MS analysis relative to control
[2] = target: Nucleolar RNA helicase 2 (Mus musculus) (UniProt Q9JIK5); experiment: Inhibition of Ddx21 in mouse C2C12 cells assessed as reduction in phospho-sites occupancy at 4 uM after 5 hrs by SILAC based LC-MS/MS analysis relative to control
[3] = target: E3 ubiquitin-protein ligase NEDD4 (Mus musculus) (UniProt P46935); experiment: Inhibition of Nedd4 in mouse C2C12 cells assessed as reduction in phospho-sites occupancy at 4 uM after 5 hrs by SILAC based LC-MS/MS analysis relative to control
[4] = target: Band 4.1-like protein 1 (Mus musculus) (UniProt Q9Z2H5); experiment: Inhibition of Epb41l1in mouse C2C12 cells assessed as reduction in phospho-sites occupancy at 4 uM after 5 hrs by SILAC based LC-MS/MS analysis relative to control
[5] = target: Acetyl-CoA carboxylase 1 (Mus musculus) (UniProt Q5SWU9); experiment: Inhibition of Acetyl-CoA carboxylase 1 in mouse C2C12 cells assessed as reduction in phospho-sites occupancy at 4 uM after 5 hrs by SILAC based LC-MS/MS analysis relative to control
[6] = target: Fermitin family homolog 2 (Mus musculus) (UniProt Q8CIB5); experiment: Inhibition of Fermt2 in mouse C2C12 cells assessed as reduction in phospho-sites occupancy at 4 uM after 5 hrs by SILAC based LC-MS/MS analysis relative to control
[7] = target: Small ubiquitin-related modifier 1 (Mus musculus) (UniProt P63166); experiment: Inhibition of Sumo1 in mouse C2C12 cells assessed as reduction in phospho-sites occupancy at 4 uM after 5 hrs by SILAC based LC-MS/MS analysis relative to control
[8] = target: Bcl-2-associated transcription factor 1 (Mus musculus) (UniProt Q8K019); experiment: Inhibition of Bcl-2-associated transcription factor 1 in mouse C2C12 cells assessed as reduction in phospho-sites occupancy at 4 uM after 5 hrs by SILAC based LC-MS/MS analysis relative to control
[9] = target: Transcriptional regulator ATRX (Mus musculus) (UniProt Q61687); experiment: Inhibition of ATRX in mouse C2C12 cells assessed as reduction in phospho-sites occupancy at 4 uM after 5 hrs by SILAC based LC-MS/MS analysis relative to control
[10] = target: EH domain-containing protein 2 (Mus musculus) (UniProt Q8BH64); experiment: Inhibition of Ehd2 in mouse C2C12 cells assessed as reduction in phospho-sites occupancy at 4 uM after 5 hrs by SILAC based LC-MS/MS analysis relative to control
EH domain-containing protein 2 (Mus musculus), sequence (Q8BH64 whole entry, the tested form may be a part): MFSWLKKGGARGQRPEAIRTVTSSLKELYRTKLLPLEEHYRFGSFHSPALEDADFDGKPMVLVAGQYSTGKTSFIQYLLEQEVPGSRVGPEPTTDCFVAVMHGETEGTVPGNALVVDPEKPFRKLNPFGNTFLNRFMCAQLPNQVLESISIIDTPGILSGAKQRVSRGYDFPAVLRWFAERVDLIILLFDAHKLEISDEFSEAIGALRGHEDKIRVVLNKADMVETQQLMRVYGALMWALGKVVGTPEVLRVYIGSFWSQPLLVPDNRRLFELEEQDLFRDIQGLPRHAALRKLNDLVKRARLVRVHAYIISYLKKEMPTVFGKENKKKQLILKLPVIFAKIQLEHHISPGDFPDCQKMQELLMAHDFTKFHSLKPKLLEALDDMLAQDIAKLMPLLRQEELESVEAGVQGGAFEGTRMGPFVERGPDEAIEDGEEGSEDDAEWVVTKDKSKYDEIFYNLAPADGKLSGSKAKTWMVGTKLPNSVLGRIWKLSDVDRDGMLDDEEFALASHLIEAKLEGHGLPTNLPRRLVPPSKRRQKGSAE

Chaperone Ric-8A (Mus musculus), sequence (Q3TIR3 whole entry): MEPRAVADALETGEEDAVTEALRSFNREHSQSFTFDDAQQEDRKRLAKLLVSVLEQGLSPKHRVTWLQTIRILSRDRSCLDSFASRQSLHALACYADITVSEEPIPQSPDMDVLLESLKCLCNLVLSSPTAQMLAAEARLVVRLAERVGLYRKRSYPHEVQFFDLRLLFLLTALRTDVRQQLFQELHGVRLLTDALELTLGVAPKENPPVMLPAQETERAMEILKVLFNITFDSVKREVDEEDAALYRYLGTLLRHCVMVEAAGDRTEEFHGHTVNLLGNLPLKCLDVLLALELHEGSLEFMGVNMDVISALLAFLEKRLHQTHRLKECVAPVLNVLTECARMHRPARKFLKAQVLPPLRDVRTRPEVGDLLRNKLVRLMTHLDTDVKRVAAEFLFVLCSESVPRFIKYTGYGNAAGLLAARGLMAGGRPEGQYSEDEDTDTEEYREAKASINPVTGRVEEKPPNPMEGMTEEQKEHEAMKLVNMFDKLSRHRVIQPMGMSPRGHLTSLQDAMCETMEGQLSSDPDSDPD
Fermitin family homolog 2 (Mus musculus), sequence (Q8CIB5 whole entry): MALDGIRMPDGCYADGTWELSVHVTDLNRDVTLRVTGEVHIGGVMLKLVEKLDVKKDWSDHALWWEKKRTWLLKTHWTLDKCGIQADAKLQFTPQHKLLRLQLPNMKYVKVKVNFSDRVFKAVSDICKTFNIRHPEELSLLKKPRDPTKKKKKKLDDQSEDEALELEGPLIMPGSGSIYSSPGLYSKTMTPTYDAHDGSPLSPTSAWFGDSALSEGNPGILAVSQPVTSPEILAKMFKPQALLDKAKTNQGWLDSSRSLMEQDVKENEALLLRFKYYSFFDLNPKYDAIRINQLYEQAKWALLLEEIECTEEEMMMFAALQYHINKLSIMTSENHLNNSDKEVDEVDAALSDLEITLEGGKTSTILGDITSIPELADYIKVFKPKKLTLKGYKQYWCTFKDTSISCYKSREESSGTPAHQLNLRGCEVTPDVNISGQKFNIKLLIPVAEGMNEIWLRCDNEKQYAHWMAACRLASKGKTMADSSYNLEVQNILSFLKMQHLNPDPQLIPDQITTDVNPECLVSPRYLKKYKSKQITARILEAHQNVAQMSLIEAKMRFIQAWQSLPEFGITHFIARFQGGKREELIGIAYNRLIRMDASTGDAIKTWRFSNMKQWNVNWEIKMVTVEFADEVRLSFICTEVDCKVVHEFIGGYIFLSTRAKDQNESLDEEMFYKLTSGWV
Bcl-2-associated transcription factor 1 (Mus musculus), sequence (Q8K019 whole entry): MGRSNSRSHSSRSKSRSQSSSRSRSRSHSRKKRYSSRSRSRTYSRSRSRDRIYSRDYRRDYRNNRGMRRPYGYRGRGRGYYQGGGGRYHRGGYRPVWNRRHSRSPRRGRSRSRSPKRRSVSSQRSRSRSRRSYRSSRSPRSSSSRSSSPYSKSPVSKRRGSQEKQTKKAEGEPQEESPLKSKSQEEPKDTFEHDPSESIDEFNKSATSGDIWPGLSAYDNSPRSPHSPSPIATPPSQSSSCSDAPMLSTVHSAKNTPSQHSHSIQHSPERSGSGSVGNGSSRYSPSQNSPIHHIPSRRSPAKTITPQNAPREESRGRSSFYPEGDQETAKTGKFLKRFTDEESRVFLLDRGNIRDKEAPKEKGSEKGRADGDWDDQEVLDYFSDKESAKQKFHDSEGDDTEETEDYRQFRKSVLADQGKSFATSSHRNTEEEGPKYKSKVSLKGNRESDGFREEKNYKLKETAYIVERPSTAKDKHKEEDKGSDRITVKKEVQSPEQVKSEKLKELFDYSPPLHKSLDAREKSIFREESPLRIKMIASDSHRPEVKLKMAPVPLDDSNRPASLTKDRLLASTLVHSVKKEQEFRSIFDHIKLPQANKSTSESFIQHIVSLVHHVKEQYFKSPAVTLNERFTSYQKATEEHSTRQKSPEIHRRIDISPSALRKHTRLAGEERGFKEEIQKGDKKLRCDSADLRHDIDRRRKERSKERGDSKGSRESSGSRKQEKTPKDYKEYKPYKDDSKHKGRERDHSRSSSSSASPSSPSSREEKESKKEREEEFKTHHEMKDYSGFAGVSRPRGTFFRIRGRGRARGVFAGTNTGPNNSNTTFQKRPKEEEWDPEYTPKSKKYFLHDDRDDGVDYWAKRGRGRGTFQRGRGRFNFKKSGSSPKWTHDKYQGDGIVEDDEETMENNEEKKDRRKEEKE
Nucleolar RNA helicase 2 (Mus musculus), sequence (Q9JIK5 whole entry): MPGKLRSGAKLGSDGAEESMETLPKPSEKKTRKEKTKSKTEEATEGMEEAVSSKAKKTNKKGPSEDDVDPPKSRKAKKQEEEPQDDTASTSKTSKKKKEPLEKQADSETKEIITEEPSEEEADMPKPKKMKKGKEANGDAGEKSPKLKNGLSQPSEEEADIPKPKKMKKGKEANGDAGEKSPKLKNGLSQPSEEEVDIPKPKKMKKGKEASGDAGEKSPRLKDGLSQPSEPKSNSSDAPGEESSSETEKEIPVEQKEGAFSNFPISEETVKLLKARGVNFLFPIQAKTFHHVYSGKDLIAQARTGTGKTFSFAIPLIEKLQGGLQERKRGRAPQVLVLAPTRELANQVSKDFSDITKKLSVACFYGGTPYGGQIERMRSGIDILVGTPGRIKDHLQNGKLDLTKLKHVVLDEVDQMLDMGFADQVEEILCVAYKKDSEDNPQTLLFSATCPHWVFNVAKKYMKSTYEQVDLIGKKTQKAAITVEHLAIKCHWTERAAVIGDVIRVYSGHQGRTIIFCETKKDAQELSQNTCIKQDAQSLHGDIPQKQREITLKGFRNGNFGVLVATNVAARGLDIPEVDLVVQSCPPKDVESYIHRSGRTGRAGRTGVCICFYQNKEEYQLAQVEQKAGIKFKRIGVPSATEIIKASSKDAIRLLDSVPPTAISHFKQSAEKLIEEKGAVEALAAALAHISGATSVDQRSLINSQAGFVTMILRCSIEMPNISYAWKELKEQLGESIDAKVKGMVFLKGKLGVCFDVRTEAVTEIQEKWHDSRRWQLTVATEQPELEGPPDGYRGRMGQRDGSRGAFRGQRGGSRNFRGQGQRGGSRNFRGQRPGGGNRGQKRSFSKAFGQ
Band 4.1-like protein 1 (Mus musculus), sequence (Q9Z2H5 whole entry): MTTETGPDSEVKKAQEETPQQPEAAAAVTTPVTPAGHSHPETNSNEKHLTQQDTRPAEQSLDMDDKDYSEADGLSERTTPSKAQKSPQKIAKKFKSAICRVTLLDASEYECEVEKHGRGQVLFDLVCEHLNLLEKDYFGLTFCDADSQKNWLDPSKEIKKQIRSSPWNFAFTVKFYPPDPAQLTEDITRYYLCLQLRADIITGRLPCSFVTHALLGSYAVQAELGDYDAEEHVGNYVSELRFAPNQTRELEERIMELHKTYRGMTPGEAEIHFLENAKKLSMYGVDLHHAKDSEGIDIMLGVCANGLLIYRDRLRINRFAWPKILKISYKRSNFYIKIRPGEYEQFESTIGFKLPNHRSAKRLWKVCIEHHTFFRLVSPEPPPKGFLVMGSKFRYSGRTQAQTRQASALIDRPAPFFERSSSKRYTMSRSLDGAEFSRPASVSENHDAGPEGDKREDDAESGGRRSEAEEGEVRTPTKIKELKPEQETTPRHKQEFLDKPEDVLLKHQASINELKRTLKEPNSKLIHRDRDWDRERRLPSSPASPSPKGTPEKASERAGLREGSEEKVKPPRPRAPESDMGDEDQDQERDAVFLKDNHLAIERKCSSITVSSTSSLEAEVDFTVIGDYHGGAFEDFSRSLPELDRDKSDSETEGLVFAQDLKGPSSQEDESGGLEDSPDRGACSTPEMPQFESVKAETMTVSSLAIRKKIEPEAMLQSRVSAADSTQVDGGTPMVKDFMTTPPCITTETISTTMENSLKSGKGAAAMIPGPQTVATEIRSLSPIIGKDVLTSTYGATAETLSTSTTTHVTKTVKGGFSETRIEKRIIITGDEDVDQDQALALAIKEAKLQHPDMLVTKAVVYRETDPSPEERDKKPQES
Small ubiquitin-related modifier 1 (Mus musculus), sequence (P63166 whole entry): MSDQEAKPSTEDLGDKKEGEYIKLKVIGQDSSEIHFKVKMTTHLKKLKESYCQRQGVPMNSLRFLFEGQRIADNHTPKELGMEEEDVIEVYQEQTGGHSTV

Structure (SMILES): COc1cc(/C=N/n2c(SC)nnc2-c2ccccc2)c(Br)cc1O
- fold change (FC) [1]: 1.93
- fold change (FC) [2]: 1.66
- fold change (FC) [3]: 5.83
- fold change (FC) [4]: 2.85
- fold change (FC) [5]: 2.73
- fold change (FC) [6]: 3.05
- fold change (FC) [7]: 1.75
- fold change (FC) [8]: 1.58
- fold change (FC) [9]: 2.83
- fold change (FC) [10]: 2.18
